Results taken from paper PMC11790914, “Chemogenomics for steroid hormone receptors (NR3)” (Communications Chemistry, 2025).
Values joined by “and” are separate entries in the source; they are usually repeats but may differ in a detail not shown here. Equal entries are not always repeated.

Tests used:
AURKA = biological target: T1, AURKA (Homo sapiens, UniProt O14965); experiment: Liability panel screening by DSF: AURKA; assay type: binding; conditions: DSF, 20 µM, n=2; read-out: Mean ΔTM AURKA
T1 construct: made in house
T1 sequence (O14965 1-403): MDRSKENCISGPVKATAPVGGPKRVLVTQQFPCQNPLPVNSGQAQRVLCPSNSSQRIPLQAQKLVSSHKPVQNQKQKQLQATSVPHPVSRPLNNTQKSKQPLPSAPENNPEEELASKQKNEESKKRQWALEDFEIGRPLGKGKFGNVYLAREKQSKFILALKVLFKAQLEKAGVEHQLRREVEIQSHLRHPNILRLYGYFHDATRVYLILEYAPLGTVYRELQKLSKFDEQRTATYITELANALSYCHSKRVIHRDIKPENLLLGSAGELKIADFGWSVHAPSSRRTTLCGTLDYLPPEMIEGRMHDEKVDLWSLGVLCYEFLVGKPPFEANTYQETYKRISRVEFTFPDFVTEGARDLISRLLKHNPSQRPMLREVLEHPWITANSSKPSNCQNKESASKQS
In short: (§1)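 Recombinant protein at 2 µM in 10 mM HEPES pH 7.5 with 500 mM NaCl was mixed with SYPRO Orange (1:1000) and heated at 3 °C/min up to 85 °C. Tm was taken as the Boltzmann-fit inflection point. Shifts are ∆Tm in K from technical duplicates.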

GSK3B = biological target: T2, GSK3B (Homo sapiens, UniProt P49841); experiment: Liability panel screening by DSF: GSK3B; assay type: binding; conditions: DSF, 20 µM, n=2; read-out: Mean ΔTM GSK3B
T2 construct: made in house

HEK293T cells [1] = experiment: Cytotoxicity: metabolic activity (WST-8 / CCK-8 assay); conditions: 1 µM; HEK293T, 24 h; WST-8; normalized to 0.1% DMSO; single replicates
[2] = tested on: ATF6 activity in Hela ATF6 reporter cells; experiment: Endoplasmic reticulum stress assay (ATF6 Renilla luciferase reporter, tunicamycin); assay type: cell-based; conditions: for activity at 1 µM: Homo sapiens, HeLa, single replicates n=1 to n=5, read-out: ER stress [rel. ATF6 activity]
In short: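 HeLa ATF6 Renilla reporter cells were pretreated 4 h with compounds in 0.1% DMSO, then stimulated with tunicamycin (100 ng/mL) for 18 h. Renilla luminescence (DualGlo) was normalized to 0.1% DMSO control; five independent experiments.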

NR3C1 (GR) = conditions: cited from earlier work
CSNK1D = biological target: T3, CSNK1D (Homo sapiens, UniProt P48730); experiment: Liability panel screening by DSF: CSNK1D; assay type: binding; conditions: DSF, 20 µM, n=2; read-out: Mean ΔTM CSNK1D
T3 construct: made in house
In short: as §1

[3] = tested on: NF-κB activity in HEK293 NF-κB reporter cells; experiment: NF-kB activity assay (GFP reporter, ionomycin/PMA); assay type: cell-based; conditions: for Mean NFκB response: n=3
In short: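 HEK293 NF-κB GFP reporter cells given compound in 0.1% DMSO for 4 h, then stimulated with ionomycin 100 ng/mL plus PMA 10 ng/mL. Imaged every 90 min over 24 h; GFP-positive cell count normalized to confluence, three independent biological replicates.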

TRIM24 = biological target: T4, TRIM24 (Homo sapiens, UniProt O15164); experiment: Liability panel screening by DSF: TRIM24; assay type: binding; conditions: DSF, 20 µM, n=2; read-out: Mean ΔTM TRIM24
T4 construct: This panel comprised ten highly ligandable kinases and bromodomains; made in house
T4 sequence (O15164 899-1004 limits assumed): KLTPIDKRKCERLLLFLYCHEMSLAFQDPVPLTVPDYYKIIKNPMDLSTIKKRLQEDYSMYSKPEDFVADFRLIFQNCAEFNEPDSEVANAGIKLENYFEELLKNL
In short: as §1

HEK293T cells [4] = experiment: Cytotoxicity: apoptosis induction (caspase-3/7 DEVD fluorogenic DNA dye); conditions: 1 µM; HEK293T, 24 h; apoptotic cell count normalized to 0.1% DMSO; single replicates
BRD4 = biological target: T5, BRD4 (Homo sapiens, UniProt O60885); experiment: Liability panel screening by DSF: BRD4; assay type: binding; conditions: DSF, 20 µM, n=2; read-out: Mean ΔTM BRD4
T5 construct: This panel comprised ten highly ligandable kinases and bromodomains; made in house
In short: as §1

FGFR3 = biological target: T6, FGFR3 (Homo sapiens, UniProt P22607); experiment: Liability panel screening by DSF: FGFR3; assay type: binding; conditions: DSF, 20 µM, n=2; read-out: Mean ΔTM FGFR3
T6 construct: made in house
In short: as §1

HEK293T cells [5] = experiment: Cytotoxicity: growth-rate (change in confluence over 24 h); conditions: 1 µM, normalized to 0.1% DMSO control, single replicates (n=1...)
HEK293T cells [6] = experiment: Cytotoxicity: necrosis induction (red fluorescent dye for permeable plasma membranes); assay type: cell-based; conditions: 1 µM, 24 h, necrotic cell count normalized to 0.1% DMSO, single replicates;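 note: compounds applied in DMEM high glucose with 0.1% FCS and 0.1% DMSO, necrotic HEK293T cells counted by red staining of cells whose plasma membranes had become permeable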
Gal4-VP16 = assay type: cell-based; conditions: 1 µM; vs. DMSO ctrl; single replicates n=1-3
ABL1 = biological target: T7, ABL1 (Homo sapiens, UniProt P00519); experiment: Liability panel screening by DSF: ABL1; assay type: binding; conditions: DSF, 20 µM, n=2; read-out: Mean ΔTM ABL1
T7 construct: made in house
In short: as §1

MAPK1 = biological target: T8, MAPK1 (Homo sapiens, UniProt P28482); experiment: Liability panel screening by DSF: MAPK1; assay type: binding; conditions: DSF, 20 µM, n=2; read-out: Mean ΔTM MAPK1
T8 construct: made in house
In short: as §1

CDK2 = biological target: T9, CDK2 (Homo sapiens, UniProt P24941); experiment: Liability panel screening by DSF: CDK2; assay type: binding; conditions: DSF, 20 µM, n=2; read-out: Mean ΔTM CDK2
T9 construct: made in house
In short: as §1

BRPF1 = biological target: T10, BRPF1 (Homo sapiens, UniProt P55201); experiment: Liability panel screening by DSF: BRPF1; assay type: binding; conditions: DSF, 20 µM, n=2; read-out: Mean ΔTM BRPF1
T10 construct: This panel comprised ten highly ligandable kinases and bromodomains; made in house
T10 sequence (P55201 628-732 limits assumed): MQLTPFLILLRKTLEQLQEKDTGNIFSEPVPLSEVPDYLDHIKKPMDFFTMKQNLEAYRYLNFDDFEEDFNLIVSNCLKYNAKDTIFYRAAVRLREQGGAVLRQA
In short: as §1

NR3C2 (MR) = conditions: cited from earlier work
NR3C3 (PR) = conditions: (lit.); ref Supplementary Table 1; read-out: Potency [nM] EC50, NR3C3 (PR); cited from earlier work

T3 sequence (P48730 whole entry, species assumed): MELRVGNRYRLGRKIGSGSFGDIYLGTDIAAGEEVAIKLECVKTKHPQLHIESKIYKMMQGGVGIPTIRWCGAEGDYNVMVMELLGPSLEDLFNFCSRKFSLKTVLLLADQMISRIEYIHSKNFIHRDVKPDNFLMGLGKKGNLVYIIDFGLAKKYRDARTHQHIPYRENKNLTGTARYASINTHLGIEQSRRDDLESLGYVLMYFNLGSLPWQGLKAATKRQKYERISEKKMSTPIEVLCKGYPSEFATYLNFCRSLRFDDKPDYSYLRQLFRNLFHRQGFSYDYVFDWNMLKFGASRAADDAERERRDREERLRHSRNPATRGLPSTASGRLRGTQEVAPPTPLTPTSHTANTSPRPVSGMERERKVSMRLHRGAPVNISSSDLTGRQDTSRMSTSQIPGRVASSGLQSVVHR
T2 sequence (P49841 whole entry, species assumed): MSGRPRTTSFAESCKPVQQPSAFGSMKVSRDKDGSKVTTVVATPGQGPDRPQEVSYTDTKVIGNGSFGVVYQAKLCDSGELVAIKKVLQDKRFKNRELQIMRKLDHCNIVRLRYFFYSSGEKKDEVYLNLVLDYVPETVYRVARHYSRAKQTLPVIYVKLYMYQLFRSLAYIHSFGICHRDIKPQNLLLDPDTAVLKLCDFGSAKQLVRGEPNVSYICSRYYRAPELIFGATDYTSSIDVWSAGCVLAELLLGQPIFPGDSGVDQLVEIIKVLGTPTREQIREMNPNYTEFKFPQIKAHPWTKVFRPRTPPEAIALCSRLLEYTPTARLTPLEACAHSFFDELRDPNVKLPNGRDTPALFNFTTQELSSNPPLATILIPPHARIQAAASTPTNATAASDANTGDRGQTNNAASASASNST
T8 sequence (P28482 whole entry, species assumed): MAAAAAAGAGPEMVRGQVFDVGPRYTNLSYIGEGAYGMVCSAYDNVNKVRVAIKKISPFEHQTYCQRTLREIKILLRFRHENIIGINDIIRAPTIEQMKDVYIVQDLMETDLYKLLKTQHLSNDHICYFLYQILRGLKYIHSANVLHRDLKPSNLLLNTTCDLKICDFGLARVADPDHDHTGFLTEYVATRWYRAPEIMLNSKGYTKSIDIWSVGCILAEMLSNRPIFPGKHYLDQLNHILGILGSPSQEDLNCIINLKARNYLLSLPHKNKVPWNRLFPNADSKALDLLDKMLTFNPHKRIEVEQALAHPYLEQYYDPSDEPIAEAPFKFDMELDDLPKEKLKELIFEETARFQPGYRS
T7 sequence (P00519 whole entry, species assumed): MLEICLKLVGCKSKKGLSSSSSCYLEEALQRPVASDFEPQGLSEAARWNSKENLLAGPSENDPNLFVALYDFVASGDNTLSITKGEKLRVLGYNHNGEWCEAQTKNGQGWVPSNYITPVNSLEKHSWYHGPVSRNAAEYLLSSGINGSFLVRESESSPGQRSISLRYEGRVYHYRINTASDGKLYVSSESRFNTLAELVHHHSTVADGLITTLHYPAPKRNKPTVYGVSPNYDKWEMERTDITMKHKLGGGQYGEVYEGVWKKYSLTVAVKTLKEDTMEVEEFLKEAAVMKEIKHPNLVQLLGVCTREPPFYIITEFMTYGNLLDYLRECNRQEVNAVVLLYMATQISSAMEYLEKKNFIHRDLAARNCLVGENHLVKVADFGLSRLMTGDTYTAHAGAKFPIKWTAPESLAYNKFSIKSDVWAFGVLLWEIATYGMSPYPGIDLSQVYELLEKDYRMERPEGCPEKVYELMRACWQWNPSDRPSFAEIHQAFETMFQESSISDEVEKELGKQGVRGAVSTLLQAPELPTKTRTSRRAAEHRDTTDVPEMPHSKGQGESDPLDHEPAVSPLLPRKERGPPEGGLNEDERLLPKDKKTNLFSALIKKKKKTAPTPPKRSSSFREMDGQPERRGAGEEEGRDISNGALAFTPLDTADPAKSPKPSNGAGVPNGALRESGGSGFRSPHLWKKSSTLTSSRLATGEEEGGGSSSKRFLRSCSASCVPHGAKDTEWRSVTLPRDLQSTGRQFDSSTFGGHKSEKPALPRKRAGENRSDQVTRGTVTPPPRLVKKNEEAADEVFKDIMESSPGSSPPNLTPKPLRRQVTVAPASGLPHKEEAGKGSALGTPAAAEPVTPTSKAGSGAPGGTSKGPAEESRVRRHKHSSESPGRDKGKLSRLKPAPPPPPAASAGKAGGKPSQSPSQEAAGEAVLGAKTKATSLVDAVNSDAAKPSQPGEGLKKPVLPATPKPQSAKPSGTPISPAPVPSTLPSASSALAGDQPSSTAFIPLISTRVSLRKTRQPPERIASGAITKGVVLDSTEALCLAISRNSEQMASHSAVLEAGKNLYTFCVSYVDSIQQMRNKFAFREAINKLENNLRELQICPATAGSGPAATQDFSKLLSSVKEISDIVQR
T6 sequence (P22607 23-806, species assumed): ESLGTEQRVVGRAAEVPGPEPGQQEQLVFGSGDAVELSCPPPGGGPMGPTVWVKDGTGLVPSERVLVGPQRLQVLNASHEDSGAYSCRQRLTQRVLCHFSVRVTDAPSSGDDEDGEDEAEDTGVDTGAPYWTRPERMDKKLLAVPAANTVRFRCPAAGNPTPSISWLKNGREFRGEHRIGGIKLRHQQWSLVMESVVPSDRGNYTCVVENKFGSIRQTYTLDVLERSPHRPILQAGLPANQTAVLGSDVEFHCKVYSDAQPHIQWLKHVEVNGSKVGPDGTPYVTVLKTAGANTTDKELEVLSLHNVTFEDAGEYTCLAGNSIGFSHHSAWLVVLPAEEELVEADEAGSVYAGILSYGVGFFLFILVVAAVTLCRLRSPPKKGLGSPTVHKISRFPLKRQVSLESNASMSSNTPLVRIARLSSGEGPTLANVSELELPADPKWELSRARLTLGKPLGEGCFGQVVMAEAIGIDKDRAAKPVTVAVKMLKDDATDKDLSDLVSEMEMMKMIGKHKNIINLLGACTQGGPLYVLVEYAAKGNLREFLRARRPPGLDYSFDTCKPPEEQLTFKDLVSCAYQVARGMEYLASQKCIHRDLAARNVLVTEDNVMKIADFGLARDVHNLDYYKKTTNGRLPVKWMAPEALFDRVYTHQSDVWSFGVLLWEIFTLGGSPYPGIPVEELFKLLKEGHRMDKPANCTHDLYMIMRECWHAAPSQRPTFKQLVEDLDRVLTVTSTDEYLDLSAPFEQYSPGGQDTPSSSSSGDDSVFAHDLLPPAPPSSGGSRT

SMILES | ΔTm at 20 µM (AURKA) | ΔTm at 20 µM (GSK3B) | activity at 1 µM [2] | ΔTm at 20 µM (CSNK1D) | Mean NFκB response ([3]; 1 µM, 1,5 h) | Mean NFκB response ([3]; 1 µM, 4,5 h) | Mean NFκB response ([3]; 1 µM, 7,5 h) | Mean NFκB response ([3]; 1 µM, 10,5 h) | Mean NFκB response ([3]; 1 µM, 13,5 h) | Mean NFκB response ([3]; 1 µM, 16,6 h) | Mean NFκB response ([3]; 1 µM, 19,5 h) | Mean NFκB response ([3]; 1 µM, 22,5 h) | Mean NFκB response ([3]; 1 µM, 3 h) | Mean NFκB response ([3]; 1 µM, 6 h) | Mean NFκB response ([3]; 1 µM, 9 h) | Mean NFκB response ([3]; 1 µM, 12 h) | Mean NFκB response ([3]; 1 µM, 15 h) | Mean NFκB response ([3]; 1 µM, 18 h) | Mean NFκB response ([3]; 1 µM, 21 h) | Mean NFκB response ([3]; 1 µM, 24 h) | further results
CC(=O)OCC(=O)[C@@]1(O)CC[C@H]2[C@@H]3CCC4=CC(=O)CC[C@]4(C)[C@@]3(F)[C@@H](O)C[C@@]21C [Fludrocortisone acetate] | 0.09 °C | -0.61 °C | 82% | -0.08 °C | 3820.94 GFP+-cells/confluence ∙ 1000 | 4296.72 GFP+-cells/confluence ∙ 1000 | 6095.26 GFP+-cells/confluence ∙ 1000 | 8052.10 GFP+-cells/confluence ∙ 1000 | 9784.85 GFP+-cells/confluence ∙ 1000 | 11376.50 GFP+-cells/confluence ∙ 1000 | 12926.78 GFP+-cells/confluence ∙ 1000 | 13912.05 GFP+-cells/confluence ∙ 1000 | 3762.70 GFP+-cells/confluence ∙ 1000 | 5124.39 GFP+-cells/confluence ∙ 1000 | 7003.20 GFP+-cells/confluence ∙ 1000 | 8806.82 GFP+-cells/confluence ∙ 1000 | 10595.86 GFP+-cells/confluence ∙ 1000 | 12286.70 GFP+-cells/confluence ∙ 1000 | 13535.05 GFP+-cells/confluence ∙ 1000 | 14315.67 GFP+-cells/confluence ∙ 1000 | Metabolic activity [MA] (HEK293T cells [1]): 1.08 (2×) and 0.93 and 1.06 and 1.01 and 0.96 and 1.04 and 1.00; ATF6 activity (tunicamycin-induced endoplasmic reticulum stress) ([2]; Hela ATF6 reporter cells, tunicamycin 100 ng/mL, 18 h, compounds at recommended concentrations, n = 5): Consistently weaker ATF6 activity; EC50 (NR3C1 (GR); (lit.), ref Supplementary Table 1, read-out: Potency [nM] EC50, NR3C1 (GR)): 4 nM; rel. activity from literature, NR3C1 (GR): fold activation (NR3C1 (GR)): ~ 1000 fold; NF-κB activity (inflammatory response to ionomycin/PMA) ([3]; HEK293 NF-κB reporter cells, compounds at recommended concentrations, imaged over 24 h, n = 3): consistently delayed and strongly diminished NF-κB activity; ΔTm at 20 µM (TRIM24): -0.96 °C; Apoptosis induction [AI] (HEK293T cells [4]): 1.14 and 1.39 and 1.56 and 1.37 and 1.13 and 1.61; ΔTm at 20 µM (BRD4): -0.79 °C; ΔTm at 20 µM (FGFR3): -0.06 °C; Growth rate [GR] (HEK293T cells [5]): 1.03 and 5.01 and 1.16 and 1.40 and 1.04 and 0.96 and 0.90 and 1.39 and 3.00 and 9.23; Necrosis induction [NI] (HEK293T cells [6]): 1.13 and 1.14 and 1.54 and 1.19; VP16 control [fold reporter gene activity] (Gal4-VP16): 0.96 fold reporter gene activity and 0.81 fold reporter gene activity and 0.89 fold reporter gene activity; ΔTm at 20 µM (ABL1): -0.12 °C; ΔTm at 20 µM (MAPK1): 0.55 °C; ΔTm at 20 µM (CDK2): -0.73 °C; ΔTm at 20 µM (BRPF1): -0.43 °C; rel. activity from literature, NR3C2 (MR): fold activation (NR3C2 (MR)): ~ 41 fold
N#Cc1ccc(N2N=C3c4ccc(C(=O)O)cc4CC[C@@H]3[C@@H]2C2CCCC2)cc1Cl [PF-03882845] | 0.42 °C | 0 °C | 94% | -4.9 °C | 2659.67 GFP+-cells/confluence ∙ 1000 | 3143.33 GFP+-cells/confluence ∙ 1000 | 6360.00 GFP+-cells/confluence ∙ 1000 | 17053.33 GFP+-cells/confluence ∙ 1000 | 25306.67 GFP+-cells/confluence ∙ 1000 | 31613.33 GFP+-cells/confluence ∙ 1000 | 36320.00 GFP+-cells/confluence ∙ 1000 | 39133.33 GFP+-cells/confluence ∙ 1000 | 2686.67 GFP+-cells/confluence ∙ 1000 | 3810.00 GFP+-cells/confluence ∙ 1000 | 11590.00 GFP+-cells/confluence ∙ 1000 | 21213.33 GFP+-cells/confluence ∙ 1000 | 28830.00 GFP+-cells/confluence ∙ 1000 | 34136.67 GFP+-cells/confluence ∙ 1000 | 37763.33 GFP+-cells/confluence ∙ 1000 | 40546.67 GFP+-cells/confluence ∙ 1000 | ΔTm at 20 µM (TRIM24): 1.43 °C; Apoptosis induction [AI] (HEK293T cells [4]): 0.00 (4×) and 0.46 and 0.70; ΔTm at 20 µM (BRD4): 0 °C; Necrosis induction [NI] (HEK293T cells [6]): 1.10 and 0.88 and 0.95 and 1.46; EC50 (NR3C3 (PR)): 416 nM; ΔTm at 20 µM (ABL1): -2.47 °C; ΔTm at 20 µM (MAPK1): -9.49 °C; ΔTm at 20 µM (CDK2): -2.04 °C; ΔTm at 20 µM (BRPF1): -8.37 °C; EC50 (NR3C2 (MR); (lit.), ref Supplementary Table 1, read-out: Potency [nM] EC50, NR3C2 (MR)): 9 nM
